Source: patent US7528138B2, “Pyrazolo[1,5-a]pyrimidines useful as inhibitors of protein kinases” (Vertex Pharmaceuticals Incorporated, priority 2004, dated 2009)

Experiments:
Assay type in all cases: biochemical
Itk = molecular target: T1, Itk (Homo sapiens, UniProt Q08881); test: ITK Inhibition Assay (Radiometric), radioactive-phosphate incorporation; settings: enzyme inhibition data (Ki), Table 11; radiometric or UV assay not stated
T1 sequence (Q08881 1-620): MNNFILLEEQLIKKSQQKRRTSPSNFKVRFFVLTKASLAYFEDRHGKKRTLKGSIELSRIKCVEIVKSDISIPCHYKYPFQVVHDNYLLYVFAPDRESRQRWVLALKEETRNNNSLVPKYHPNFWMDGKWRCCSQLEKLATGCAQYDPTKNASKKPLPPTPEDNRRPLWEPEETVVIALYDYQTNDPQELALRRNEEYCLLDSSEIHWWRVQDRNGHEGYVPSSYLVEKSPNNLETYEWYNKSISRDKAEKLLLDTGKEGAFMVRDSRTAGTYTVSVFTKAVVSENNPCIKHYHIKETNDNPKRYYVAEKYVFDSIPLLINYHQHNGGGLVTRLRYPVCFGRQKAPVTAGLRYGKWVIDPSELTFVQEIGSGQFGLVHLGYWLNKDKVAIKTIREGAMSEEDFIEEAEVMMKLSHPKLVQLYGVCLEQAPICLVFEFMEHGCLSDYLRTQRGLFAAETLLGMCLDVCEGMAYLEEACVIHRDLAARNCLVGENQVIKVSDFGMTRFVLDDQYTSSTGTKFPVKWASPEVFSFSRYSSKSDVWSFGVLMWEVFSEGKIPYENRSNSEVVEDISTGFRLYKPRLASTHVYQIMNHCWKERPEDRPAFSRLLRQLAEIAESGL
Method in brief: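 Radiometric 33P incorporation into SAM68 peptide (D332-443) with filter capture and scintillation counting; 10 min pre-incubation then 10 min reaction at 25° C. IC50 format: 30 nM Itk, 15 μM ATP, 2 μM peptide, HEPES pH 7.5. Ki(app) format: 50 nM Itk, 7.5 μM ATP, 3 μM peptide, MOPS pH 7.0.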

JAK3 = molecular target: T2, JAK3 (Homo sapiens, UniProt P52333); test: JAK3 Inhibition Assay, 33P incorporation; settings: enzyme inhibition data (Ki), Table 11
T2 sequence (P52333 1-1124): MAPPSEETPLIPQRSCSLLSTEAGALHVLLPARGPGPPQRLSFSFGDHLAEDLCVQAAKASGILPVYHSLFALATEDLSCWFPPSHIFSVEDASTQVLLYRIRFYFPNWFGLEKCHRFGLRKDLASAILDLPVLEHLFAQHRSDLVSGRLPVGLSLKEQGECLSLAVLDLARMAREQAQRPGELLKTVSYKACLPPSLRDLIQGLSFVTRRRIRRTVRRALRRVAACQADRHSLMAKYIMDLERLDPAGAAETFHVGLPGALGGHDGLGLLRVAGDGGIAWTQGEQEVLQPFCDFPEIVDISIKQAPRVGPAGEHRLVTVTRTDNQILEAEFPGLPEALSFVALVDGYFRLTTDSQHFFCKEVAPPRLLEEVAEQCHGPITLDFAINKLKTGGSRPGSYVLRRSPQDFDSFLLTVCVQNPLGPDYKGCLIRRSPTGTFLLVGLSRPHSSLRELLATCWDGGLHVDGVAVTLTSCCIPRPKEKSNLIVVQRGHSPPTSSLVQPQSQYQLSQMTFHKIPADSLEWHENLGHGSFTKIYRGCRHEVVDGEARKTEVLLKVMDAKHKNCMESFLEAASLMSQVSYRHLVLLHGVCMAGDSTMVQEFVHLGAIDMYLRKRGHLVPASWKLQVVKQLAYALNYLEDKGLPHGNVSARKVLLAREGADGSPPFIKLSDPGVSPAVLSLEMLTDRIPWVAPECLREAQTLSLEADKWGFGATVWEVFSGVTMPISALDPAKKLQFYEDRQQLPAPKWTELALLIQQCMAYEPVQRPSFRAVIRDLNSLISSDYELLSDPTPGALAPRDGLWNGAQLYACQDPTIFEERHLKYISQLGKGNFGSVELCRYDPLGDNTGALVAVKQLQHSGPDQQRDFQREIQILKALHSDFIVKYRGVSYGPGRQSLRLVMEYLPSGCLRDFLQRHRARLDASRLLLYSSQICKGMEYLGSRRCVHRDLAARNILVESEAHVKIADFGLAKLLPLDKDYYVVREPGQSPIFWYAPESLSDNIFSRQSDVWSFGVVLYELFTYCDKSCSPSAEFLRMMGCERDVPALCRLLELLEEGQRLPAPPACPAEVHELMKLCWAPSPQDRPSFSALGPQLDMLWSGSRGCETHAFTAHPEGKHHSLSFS
Method in brief: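 Recombinant JAK3 at 1 nM in HEPES pH 7.4 buffer with 10 mM MgCl2, 1 mM DTT and 0.01% BSA. Substrates were 5 μM ATP (200 uCi/μmole) and 1 μM poly(Glu)4Tyr, reacted 20 min at 25 °C. Stopped with TCA, and 33P incorporation counted on glass fiber filters.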

c-Met = c-Met (Homo sapiens, UniProt P08581); test: c-Met Inhibition Assay, coupled enzyme system; settings: enzyme inhibition data (Ki), Table 11
Chain of c-Met (P08581 25-1390): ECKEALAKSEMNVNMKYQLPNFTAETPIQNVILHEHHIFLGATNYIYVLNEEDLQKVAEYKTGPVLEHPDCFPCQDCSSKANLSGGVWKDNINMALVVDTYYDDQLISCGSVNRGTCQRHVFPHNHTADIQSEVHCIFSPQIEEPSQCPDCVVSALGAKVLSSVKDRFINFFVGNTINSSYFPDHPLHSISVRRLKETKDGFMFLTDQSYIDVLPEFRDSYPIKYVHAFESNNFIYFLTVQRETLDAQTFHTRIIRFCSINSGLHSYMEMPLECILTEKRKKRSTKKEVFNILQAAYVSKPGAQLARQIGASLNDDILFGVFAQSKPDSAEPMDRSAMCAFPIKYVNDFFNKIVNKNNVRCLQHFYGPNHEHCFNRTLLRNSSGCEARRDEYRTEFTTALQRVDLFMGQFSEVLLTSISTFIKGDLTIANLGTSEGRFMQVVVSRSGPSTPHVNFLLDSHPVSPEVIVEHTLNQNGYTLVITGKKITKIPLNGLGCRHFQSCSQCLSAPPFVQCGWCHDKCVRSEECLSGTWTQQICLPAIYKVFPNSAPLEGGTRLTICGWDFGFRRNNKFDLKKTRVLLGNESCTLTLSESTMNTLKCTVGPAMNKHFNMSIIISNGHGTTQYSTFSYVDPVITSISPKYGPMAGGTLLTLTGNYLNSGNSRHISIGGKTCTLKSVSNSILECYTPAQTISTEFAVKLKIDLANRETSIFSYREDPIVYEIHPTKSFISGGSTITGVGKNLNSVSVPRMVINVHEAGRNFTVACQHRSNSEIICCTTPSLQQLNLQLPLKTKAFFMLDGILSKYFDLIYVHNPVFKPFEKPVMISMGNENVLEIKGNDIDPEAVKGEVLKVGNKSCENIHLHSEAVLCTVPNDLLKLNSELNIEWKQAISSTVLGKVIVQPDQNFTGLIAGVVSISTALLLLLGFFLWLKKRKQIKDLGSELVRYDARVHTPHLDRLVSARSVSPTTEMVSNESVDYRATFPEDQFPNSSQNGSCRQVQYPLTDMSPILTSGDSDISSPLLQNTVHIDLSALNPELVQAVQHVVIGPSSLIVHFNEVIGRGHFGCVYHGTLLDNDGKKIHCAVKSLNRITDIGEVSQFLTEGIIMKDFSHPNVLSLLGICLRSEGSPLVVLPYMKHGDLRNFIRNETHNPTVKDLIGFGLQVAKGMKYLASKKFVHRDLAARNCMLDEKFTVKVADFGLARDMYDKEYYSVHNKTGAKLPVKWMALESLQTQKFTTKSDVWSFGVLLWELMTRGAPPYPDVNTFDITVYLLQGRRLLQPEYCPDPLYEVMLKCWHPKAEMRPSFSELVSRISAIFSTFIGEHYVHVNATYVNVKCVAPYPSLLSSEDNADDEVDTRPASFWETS
Method in brief: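 Pyruvate kinase/lactate dehydrogenase-coupled NADH assay in HEPES pH 7.5 with 80 nM c-Met, 200 μM ATP and 10 μM polyGluTyr at 30° C. Compound (0.006–12.5 μM final, 12-point) preincubated 10 min before ATP start; rates over 10 min gave Ki.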

| SMILES | Ki (Itk) [µM] | Ki (JAK3) [µM] | Ki (c-Met) [µM] |
| --- | --- | --- | --- |
| Nc1nn2cc(N3CCC[C@@H]3CN3CCCC3)cnc2c1-c1ccccn1 [Compound V-272] | 0.5 to 5 | > 5 | 0.5 to 5 |
| Nc1nn2cc(-c3ccccc3OCc3ccccc3)cnc2c1-c1ccccn1 [Compound V-56] | 0.5 to 5 | > 5 | 0.5 to 5 |
| COc1ccc(-c2cnc3c(-c4ccccc4)c(N)nn3c2)cc1 [Compound V-186] | < 0.5 | > 5 | 0.5 to 5 |
| N#Cc1cccc(-c2cnc3c(-c4ccccn4)c(N)nn3c2)c1 [Compound V-197] | < 0.5 | > 5 | < 0.5 |
| CCOC(=O)C1CCCN(c2ccc(-c3cnc4c(-c5ccccn5)c(N)nn4c3)cn2)C1 (stereo not drawn) [Compound V-167] | 0.5 to 5 | > 5 | < 0.5 |
| Nc1nn2cc(-c3ccc(N4CCN(CCOCCO)CC4)nc3)cnc2c1-c1ccccn1 [Compound V-150] | < 0.5 | > 5 | < 0.5 |
| Nc1nn2cc(-c3cccnc3N3CCN(Cc4ccncc4)CC3)cnc2c1-c1ccccn1 [Compound V-264] | 0.5 to 5 | > 5 | 0.5 to 5 |
| Nc1nn2cc(-c3ccncc3)cnc2c1C(=O)c1ccccc1 [Compound V-131] | 0.5 to 5 | 0.5 to 5 | 0.5 to 5 |
| CN(CC1OCCO1)C(=O)c1ccc(-c2cnc3c(-c4ccccn4)c(N)nn3c2)nc1 [Compound V-95] | < 0.5 | 0.5 to 5 | < 0.5 |
| Nc1nn2cc(N3CCCC3)cnc2c1-c1ccccn1 [Compound V-58] | 0.5 to 5 | > 5 | < 0.5 |
| CCN(CCN)C(=O)c1cccc(-c2cnc3c(-c4ccccn4)c(N)nn3c2)n1 [Compound V-126] | 0.5 to 5 | > 5 | < 0.5 |
| Cc1ccccc1-c1cnc2c(-c3ccccn3)c(N)nn2c1 [Compound V-7] | 0.5 to 5 | > 5 | 0.5 to 5 |
| Nc1nn2cc(CCc3ccccc3)cnc2c1-c1ccccn1 [Compound V-213] | 0.5 to 5 | > 5 | 0.5 to 5 |
| Nc1nn2cc(-c3ccc(N4CCCCC4)nc3)cnc2c1-c1ccccn1 [Compound V-147] | 0.5 to 5 | > 5 | 0.5 to 5 |
| CCN(Cc1ccncc1)C(=O)c1c(N)nn2cc(-c3ccncn3)cnc12 [Compound V-36] | 0.5 to 5 | > 5 | 0.5 to 5 |
| CN(CC1OCCO1)C(=O)c1cccc(-c2cnc3c(-c4ccccn4)c(N)nn3c2)n1 [Compound V-142] | 0.5 to 5 | 0.5 to 5 | < 0.5 |
| Nc1nn2cc(-c3cccnc3N3CCC(N4CCCC4)CC3)cnc2c1-c1ccccn1 [Compound V-265] | 0.5 to 5 | > 5 | 0.5 to 5 |
| Nc1nn2cc(-c3cccc(C(=O)N4CCCC(O)C4)n3)cnc2c1-c1ccccn1 (stereo not drawn) [Compound V-140] | 0.5 to 5 | > 5 | < 0.5 |
| CCN(Cc1ccccc1)C(=O)c1c(N)nn2cc(-c3ccncn3)cnc12 [Compound V-42] | 0.5 to 5 | > 5 | 0.5 to 5 |
| Nc1nn2cc(-c3cncnc3)cnc2c1-c1ccccn1 [Compound V-52] | 0.5 to 5 | > 5 | 0.5 to 5 |
| CN(Cc1cccnc1)c1cc(-c2cnc3c(-c4ccccn4)c(N)nn3c2)ccn1 [Compound V-252] | 0.5 to 5 | > 5 | 0.5 to 5 |
| CCCCNC(=O)c1ccc(-c2cnc3c(-c4ccccn4)c(N)nn3c2)nc1 [Compound V-77] | 0.5 to 5 | > 5 | 0.5 to 5 |
| COc1ccc(-c2cnc3c([N+](=O)[O-])c(N)nn3c2)cc1 [Compound V-239] | 0.5 to 5 | > 5 | 0.5 to 5 |
| CN(C)CCNc1cc(-c2cnc3c(-c4ccccn4)c(N)nn3c2)ccn1 [Compound V-246] | 0.5 to 5 | > 5 | < 0.5 |
| Cc1n[nH]c(C)c1-c1cnc2c(-c3ccccn3)c(N)nn2c1 [Compound V-53] | 0.5 to 5 | > 5 | < 0.5 |
| CCN(CCN)c1ccc(-c2cnc3c(-c4ccccn4)c(N)nn3c2)cn1 [Compound V-157] | < 0.5 | > 5 | < 0.5 |
| Nc1nn2cc(-c3cccnc3N3CC[C@H](CN4CCCC4)C3)cnc2c1-c1ccccn1 [Compound V-261] | 0.5 to 5 | > 5 | 0.5 to 5 |

Now from value to compound:

| Ki (Itk) [µM] | Ki (JAK3) [µM] | Ki (c-Met) [µM] | SMILES |
| --- | --- | --- | --- |
| 0.5 to 5 | 0.5 to 5 | < 0.5 | CCC(C)Nc1cc(-c2c(N)nn3cc(C)cnc23)ncn1 (stereo not drawn) [Compound V-282] |
| 0.5 to 5 | > 5 | 0.5 to 5 | Cc1cnc2c(-c3cc(N4CCC(CCc5ccccc5)C4)ncn3)c(N)nn2c1 (stereo not drawn) [Compound V-304] |
| 0.5 to 5 | 0.5 to 5 | < 0.5 | Cc1cnc2c(-c3cc(N[C@H]4CCC[C@@H]4OCc4ccccc4)ncn3)c(N)nn2c1 [Compound V-334] |
| 0.5 to 5 | 0.5 to 5 | < 0.5 | Cc1cnc2c(-c3cc(N4CCCC4c4ccc(F)cc4)ncn3)c(N)nn2c1 (stereo not drawn) [Compound V-307] |
| 0.5 to 5 | 0.5 to 5 | < 0.5 | Cc1cnc2c(-c3cc(N[C@@H]4CCOC4)ncn3)c(N)nn2c1 [Compound V-335] |
| < 0.5 | < 0.5 | < 0.5 | Cc1cnc2c(-c3cc(NC4CCNC4)ncn3)c(N)nn2c1 (stereo not drawn) [Compound V-337] |
| 0.5 to 5 | > 5 | 0.5 to 5 | Nc1nn2cc(CCCN3CCOCC3)cnc2c1-c1ccccn1 [Compound V-313] |
| < 0.5 | 0.5 to 5 | < 0.5 | Cc1cnc2c(-c3cc(NC4CC5CCC4C5)ncn3)c(N)nn2c1 (stereo not drawn) [Compound V-333] |
| < 0.5 | < 0.5 | < 0.5 | Cc1cnc2c(-c3cc(N4CCC(S(C)(=O)=O)C4)ncn3)c(N)nn2c1 (stereo not drawn) [Compound V-308] |
| 0.5 to 5 | 0.5 to 5 | < 0.5 | Cc1cnc2c(-c3cc(N[C@H](C)C4CCCCC4)ncn3)c(N)nn2c1 [Compound V-297] |
| 0.5 to 5 | 0.5 to 5 | < 0.5 | Cc1cnc2c(-c3cc(N[C@@H]4CCC[C@H]4OCc4ccccc4)ncn3)c(N)nn2c1 [Compound V-336] |
| < 0.5 | 0.5 to 5 | < 0.5 | COC[C@H]1CCCN1c1cc(-c2c(N)nn3cc(C)cnc23)ncn1 [Compound V-302] |
| < 0.5 | 0.5 to 5 | < 0.5 | Cc1cnc2c(-c3cc(N[C@@H](C)C(C)C)ncn3)c(N)nn2c1 [Compound V-296] |
